Measured values from PubChem BioAssay AID540268 (Broad Institute, 2011).
Active and inactive are the calls of the source. No rule for the calls is given here.

Assay: growth inhibition of yeast carrying parasite Hsp90, dose response, anti-malarial Hsp90 inhibitor project, ATP luminescence, 48 h, cherry-picked samples (AID 540268);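 as to activity change, negative = inhibition: 0% = neutral control wells and -100% = positive control wells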
Details: yeast expressing the parasite Hsp90, ATP luminescence

Structure (SMILES)	AC50 [µM]
Cc1cc2c(cc1C)CSC(c1c(O)ccc3ccccc13)SC2	4.26
CCCCCCCCCCCCCCCC(O)C[N+](C)(C)CCO (centres undefined)	6.61
Cc1cc([N+](=O)[O-])c2ccccc2[n+]1[O-]	< 0.195
Oc1ccc(/C=N/N(Cc2ccccc2)c2ccccc2)cc1	8.09
COc1ccc(C(C)(C)C)cc1NC(=O)Nc1ccc2c(c1)OCO2	8.96
O=C(Nc1nc(-c2ccccn2)cs1)c1ncc(Cl)c(Cl)c1Cl	2.9
CCOc1cc(/C=C\[N+](=O)[O-])ccc1OCC(=O)Nc1ccccc1C	2.61
COc1ccc(/C=C/C(=O)NC(=S)NNC(=O)c2cnccn2)cc1	0.854
Clc1ccccc1CN(Cc1ccco1)Cc1nnnn1C1CCCC1	9.49
Cc1ccc(CNC(=O)c2ccc(Cn3nc(C)c(Cl)c3C)o2)cc1	7.23
CC1=NNC(=O)/C1=C\c1cn(-c2ccccc2)nc1-c1cccs1	4.87
Cc1c(OCC(=O)C(C)(C)C)ccc2c(-c3ccccc3)cc(=O)oc12	8.35
CC(C)CCOc1cccc(OCC(=O)Nc2ccncc2)c1	4.84
Oc1c(CN2CCN(c3ccc(F)cc3)CC2)cc(Cl)c2cccnc12	< 0.195
Cn1ncc2c(Nc3cccc(Cl)c3)nc(Nc3cccc(Cl)c3)nc21	2.82
O=C(NCCCCc1ccccc1)c1ccc(Br)cc1	4.42
O=C(/C=C/c1ccccn1)c1cc(Br)ccc1O	1.01
CCOC(=O)N=Nc1c2ccccc2c2nc3no[nH]c3nc12	0.769
Cc1ccc(N=N/C(=C\O)C(=O)c2ccc(Cl)cc2)cc1	8.29
Cc1ccc(N2C(=O)C3C4C=CC(CNC(=S)Nc5ccc(Cl)cc5)(O4)C3C2=O)cc1 (centres undefined)	11.9
CC(=NNC(=S)N(Cc1ccccn1)Cc1ccccn1)c1cnccn1	3.95
Cc1ccc(/C=C/C(=O)c2ccccc(=O)c2O)c(C)c1	1.93
CCCOc1ccc2ccccc2c1/C=C1\SC(=O)NC1=O	7.76
CCOC(=O)c1cc2cc(OCc3ccccc3)ccc2nc1C	2.97
O=C1C2C3C=CC(CNS(=O)(=O)c4ccccc4)(O3)C2C(=O)N1c1ccc(Cl)cc1 (centres undefined)	3.73
COc1cccc(/C=N/Nc2ncnc3scc(-c4ccccc4)c23)c1O	15.3
Cc1ccc2nc(-c3cccc(NS(C)(=O)=O)c3)cc(-c3ccccc3)c2c1	9.6

Structure (SMILES)	AC50 [µM]
CC(C)N(CCC(=O)c1ccc2ccccc2c1)Cc1ccccc1	17.6
CCC(=O)OCOc1ccc(/C=C2/CCC(CN(C)C)C2=O)cc1 (centres undefined)	2.89
CCCCCCCCCCCCCCCC[N+](C)(C)C	8.6
CCCCC(=O)NC(c1cccc([N+](=O)[O-])c1)c1ccc2cccnc2c1O (centres undefined)	2.62
CC(=NNC(=S)N1CCCCCC1)c1ccccn1	3.89
CC(=NNC(=S)N1CC2CCC(CC2)C1)c1cnccn1	< 0.195
COc1ccc(C2=CC3=C(Br)C(=O)C(C)(O)C(=O)C3=CO2)cc1 (centres undefined)	1.73
O=Cc1ccc(O)c2ncccc12	< 0.195
O=C(CCSc1ccc(Br)cc1)c1ccc(O)cc1	3.64
Oc1cccc2ccc(/C=C/c3ccccc3Br)nc12	16.9
CCCOc1ccc(N2C(=O)CC(N3CCC(C(=O)OCC)CC3)C2=O)cc1 (centres undefined)	6.07
COc1ccc(NC(=O)c2cc([N+](=O)[O-])ccc2O)cc1	5.24
Cc1nnc(N=c2ssnc2Cl)o1	1.03
O=C(Nc1nc(-c2ccccn2)cs1)c1ccc(-c2ccccc2F)o1	8.88
O=C1/C(=C\c2ccc(Cl)cc2)CCC1CNc1ccc(Cl)cc1 (centres undefined)	< 0.195
COc1ccc(C(C#N)=C2C=CC(=NO)C=C2)cc1	4.56
O=[N+]([O-])c1oc2ccc3ccccc3c2c1CCO	2.06
Cc1cc(N=Nc2ccccc2C(=O)O)c(C)c(C)c1O	4.79
CCC(=O)NC(c1cccs1)c1ccc2cccnc2c1O (centres undefined)	7.69
O=C(Oc1c(Cl)cc(Cl)c2cccnc12)c1ccco1	0.696
O=C(N/N=C\c1c(O)ccc2ccccc12)c1cncc(Br)c1	4.28
Cc1ccc(-c2cc(C(=O)N3N=C(C(F)F)CC3(O)C(F)F)c3ccccc3n2)cc1C (centres undefined)	2.93
c1ccc(-c2c(-c3ccccc3)n(Cc3ccco3)c3ncnc(NCCCn4ccnc4)c23)cc1	1.83
O=C1S/C(=C\c2ccc(N3CCOCC3)o2)C(=O)N1Cc1c(F)cccc1Cl	11.1
O=C(N/N=C/c1ccccn1)c1cc(-c2ccc(Cl)cc2)nc2ccccc12	8.57
Oc1ccccc1N=Nc1nc(-c2ccccc2)c(-c2ccccc2)[nH]1	1.98
O=C(O)c1cccc(N/N=C/c2cc(Br)cc(Br)c2O)c1	1.15

Structure (SMILES)	AC50 [µM]
O=[N+]([O-])/C=C\c1ccc(N2CCCC2)c(F)c1	6.27
CCOC(=O)c1sc(-c2ccc(C(F)(F)F)cc2)nc1O	2.59
COc1ccc(C(=O)/C=C/c2ccc(-c3ccccc3)cc2)cc1CSCC(=O)O	6.01
O=C(Oc1c(Cl)cc(Cl)c2cccnc12)c1cccc([N+](=O)[O-])c1	16
O=S(=O)(NC1CCCCCC1)c1ccc(Br)s1	3.13
O=C(/C=C/c1cccc([N+](=O)[O-])c1)c1ccc([N+](=O)[O-])o1	< 0.195
COc1ccc(O)c(-c2cc(-c3cccc(Br)c3)n[nH]2)c1	7.23
CCCCCCC(=O)N(O)C1CC(=O)N(c2ccc(Br)cc2)C1=O (centres undefined)	2.22
CC(=NNC(=S)N1CCC1)c1ccccn1	1.72
CC1OC(CC(=O)O)CC2=C1C(=O)c1c(O)cccc1C2=O (centres undefined)	< 0.195
COc1ccc(C2=CC3=C(Br)C(=O)C(C)(OC(=O)C4CCCC4)C(=O)C3=CO2)cc1 (centres undefined)	4.4
O=C(O)c1cccc(NN=C2c3ccccc3-c3ccccc32)c1	5.71
Cc1ccc(O)c(-c2cc(-c3cccc(F)c3)n[nH]2)c1	17.2
CCCCCCCCCCCCCC(=O)NO	< 0.195
O=C1/C(=C\c2ccc(O)c(O)c2)SC(=S)N1Cc1ccccc1	4.26
Cc1ccc(S(=O)(=O)Nc2cc(Cl)c(O)c3ncccc23)cc1	2.09
CCC(C)Nc1ccc(NC(C)CC)cc1 (centres undefined)	3.26
COc1ccc(C(=O)O/N=C2\C(=O)N(C)c3ccccc32)cc1	< 0.195
Cc1ccc(-n2c(Cl)c(Cl)nc(Cl)c2=O)cc1	1.2
CN(C)/C=C/C(=O)c1ccc2noc(-c3cccc(F)c3)c2c1	13.5
Cc1ccc(S(=O)(=O)Nc2ccc3cc([N+](=O)[O-])ccc3c2[N+](=O)[O-])cc1	11.9
O=C1C=C(c2cccs2)C[C@H](c2ccccc2)[C@H]1n1nnc([N+](=O)[O-])n1	11.8
COc1cccc(/C=N/Nc2ncc(C(F)(F)F)cc2Cl)c1O	4.33
CN1C(=O)C(N=Nc2ccc([N+](=O)[O-])cc2)SC1=S (centres undefined)	3.87
Cc1c(CCCl)c(Cl)n2c(nc3ccccc32)c1C#N	3.39
CCN1C/C(=C/c2cccc([N+](=O)[O-])c2)C(=O)/C(=C/c2cccc([N+](=O)[O-])c2)C1	3.22

Same assay, conditions: yeast expressing the parasite Hsp90, ATP luminescence, at 26 µM (top of the series)

Structure (SMILES)	activity change, negative = inhibition
O=C(CSc1ccc(-c2ccccn2)nn1)Nc1ccccc1	-18.1% (inactive)
O=C1S/C(=C/c2ccc(N3CCOCC3)o2)C(=O)N1Cc1c(F)cccc1Cl	23.4% (inactive)
NC(=O)/C=C\C(=O)Nc1cccc(C(F)(F)F)c1	12.6% (inactive)
Cc1cc(/C=c2\sc3nc4ccccc4n3c2=O)c(C)n1-c1ccc(C(=O)O)cc1	22.6% (inactive)
